Reference: patent publication US20240308976A1, “COMPOUNDS THAT MEDIATE PROTEIN DEGRADATION AND USES THEREOF” (Monte Rosa Therapeutics, Inc., priority 2021, published 2024)

Legend:
[1] = target: T1, GSPT1 (Homo sapiens, UniProt P15170+Q96SW2); assay: Immunofluorescence assay for activity to degrade GSPT1 in CAL-51 cells; assay type: cell-based; conditions: 6 h treatment, read-out: IF Class (GSPT1 degradation, DC50)
T1 construct: CAL-51 cells were purchased from DSMZ (cat. Number ACC302); host or cells: CAL-51
Method: Example 147: Compound Activity by Immunofluorescence Assay
The representative compounds were tested in an immunofluorescence assay for their activity to degrade GSPT1. CAL-51 cells were purchased from DSMZ (cat. Number ACC302), sub-cultured in 90% Dulbecco's MEM (4.5 g/L glucose, Gibco 11965)+10% heat inactivated FBS (BioConcept, 2-01F136I) and incubated at 37° C., 5% CO2. For the assay imaging microtiter plate Cell Carrier 96 Ultra (Perkin Elmer 6055302) were pre-coated with Fibronectin (Sigma F085, 30 μL at 0.2 μg/mL) in PBS (100 μL, Gibco 14190) for 45 min at room temperature, rinsed with PBS and CAL-51 cells (30K cells/well) were plated and let to adhere overnight. Cells were treated with compounds typically using a serial dilution ranging from 30 μM to 0.1 nM for 6 h. Compounds were stored at 10 mM DMSO stocks. Vehicle (DMSO), positive (CC-885, 10 μM) and rescue controls (positive control plus 0.2 μM bortezomib) were also included at this stage. Cells were subsequently rinsed with PBS and fixed in 10% Formalin solution (50 μL, Sigma HT5011)) for 20 mins at room temperature. Following three consecutive PBS washes (100 μL), cells were permeabilized in 0.1% Triton X-100 in PBS (Sigma 93443, 50 μL) for 15 min. at room temperature. Following three further PBS washes, 50 μL blocking buffer (1% BSA, Sigma A4503, in PBS) was added for 45 min for signal-to noise reduction. Primary antibody (human GSPT1, Sigma HPA052488) was diluted in blocking buffer (dil.1/300, 35 μL/well) and incubated with the cells overnight at 4° C. After three PBS washes, Alexa-fluor 488 coupled secondary antibodies (Invitrogen, A32731, dil. 1/1000), Alexa-fluor 647-Phalloidin (Invitrogen, A22287, dil. 1/200) and DAPI (Thermo, #62248, dil. 1/1000) were diluted in blocking buffer and incubated with the samples for 2 h at room temperature. After three final PBS washes, samples were conserved in 100 μL PBS in the dark, until measurement. Image acquisition was performed on the Operetta High-Content Imager (Perkin-Elmer). Fluorescence intensity of […] (GSPT1), Alexa-Fluor 647 (Actin) and DAPI (Nucleus) were measured. For the determination of GSPT1 DC50 values, a custom algorithm implemented in the PerkinElmer image analysis software Harmony-Acapella® was developed. After user-defined setting of adjustment parameters, the analysis was run identically without human intervention for all image fields. DAPI staining of the nuclei was used to determine the location of cells using standard nuclei detection modules. Segmentation artifacts were removed by threshold-based filters for area, roundness and intensity. The outline of the cells was determined analogously from the sum of the normalized, smoothed DAPI and Actin channel, starting from each nucleus. The Alexa-Fluor 488 (GSPT1) signal intensity in each cell was finally measured, in order to obtain a Mean intensity per cell. GSPT1 degradation (DC50) was calculated after normalization to controls and data import in CDD vault Database, using non-linear regression.
(§1) In Table 2, each compound is assigned a class (HTRF class) indicating the ability for Cereblon binding by means of their HTRF IC50 values according to […]: A, B, C or D. According to the code, A represents an IC50 value of ≤100 nM, B represents an IC50 value>100 nM and ≤1000 nM, C represents an IC50 value>1000 nM. IF Class assigns each compound a code indicating the ability for GSPT1 degradation: A, B or C. According to the code, A represents a DC50 value of ≤30 nM, B represents a DC50 value>30 nM and ≤300 nM and C represents a DC50 value of >300 nM.

[2] = target: CRBN-DDB1 (Homo sapiens, UniProt Q96SW2); assay: Compound binding to CRBN by HTRF assay; conditions: CRBN-DDB1 2.5 nM, Cy5-Thalidomide 100 nM, 30 min at ambient temperature; read-out: HTRF Class (Cereblon binding, HTRF IC50)
Method: Example 146: Compound Binding to CRBN by HTRF Assay
Compound activity was monitored in a Homogenous Time-Resolved Fluorescence (HTRF) assay using 1-[5-({2-[2-(2-{[2-(2,6-dioxopiperidin-3-yl)-1,3-dioxo-2,3-dihydro-1H-isoindol-4-yl]oxy}acetamido)ethoxy]ethyl}carbamoyl)pentyl]-3,3-dimethyl-2-[(1E,3E)-5-[(2E)-1,3,3-trimethyl-5-sulfo-2,3-dihydro-1H-indol-2-ylidene]penta-1,3-dien-1-yl]-3H-indol-1-ium-5-sulfonate as a fluorescent probe. Biochemical assays were conducted in Greiner white 384 well HiBase plates (Cat. No 784075-25) in 10 μL total volume. A one pot detection solution of CRBN-DDB1 (2.5 nM), Anti-His Terbium Cryptate Gold (1X, PerkinElmer Cat. #: 61HI2TLB), and Cy5-Thalidomide (100 nM, Tenova Cat.: T52461) was prepared in 20 mM HEPES, 20 mM NaCl, 0.2 mM TCEP, 0.2 mM EDTA, and 0.005% Tween20 was dispensed to each assay plate. Compounds were stored in dry, ambient temperatures at 10 mM. A 10-point, 1:3 dilution series was prepared from 10 mM stock concentrations in Echo-compatible LDV plates. 10 nL of each compound dilution series was dispensed into assays wells using an Echo 650 (Labcyte inc. USA). 10 nL of 10 mM Lenalidomide was transferred into the active-control wells for the assay and 10 nL of DMSO was transferred into the neutral-control wells. The assay was then allowed to incubate for 30 min at ambient temperature after transferring compound. Plate measurements were taken on a Pherastar FSX (BMG Labtech, Germany) using the HTRF Red filter (Ex. 337 nm, em1: 620 nm, em2: 665 nm) (Flashes: 50, Integration time: 60-400 us, Z-height: 10 mm, Ratio-multiplier: 10,000). The HTRF signal was then subsequently normalized to the neutral and active controls. Analysis and IC50 values were derived using KNIME analytics (KNIME Zurich) transformation and fitting within Collaborative Drug Discovery (Collaborative Drug Discovery USA). Ki was derived from the geometric mean of the IC50 values using the Cheng-Prustoff transformation.
as §1

CRBN-DDB1, sequence (Q96SW2 whole entry): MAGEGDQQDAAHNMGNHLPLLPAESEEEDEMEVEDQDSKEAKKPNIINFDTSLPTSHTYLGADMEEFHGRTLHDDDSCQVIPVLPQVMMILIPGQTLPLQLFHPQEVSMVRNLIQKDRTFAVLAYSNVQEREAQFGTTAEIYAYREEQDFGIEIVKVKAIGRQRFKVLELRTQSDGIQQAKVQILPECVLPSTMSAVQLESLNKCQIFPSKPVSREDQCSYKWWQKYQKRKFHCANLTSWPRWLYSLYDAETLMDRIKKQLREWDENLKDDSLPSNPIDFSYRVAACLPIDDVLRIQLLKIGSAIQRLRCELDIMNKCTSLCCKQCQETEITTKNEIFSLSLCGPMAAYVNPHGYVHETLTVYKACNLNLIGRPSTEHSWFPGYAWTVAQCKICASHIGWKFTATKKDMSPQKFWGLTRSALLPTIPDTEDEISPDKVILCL
CRBN-DDB1, sequence (Q16531 whole entry partner): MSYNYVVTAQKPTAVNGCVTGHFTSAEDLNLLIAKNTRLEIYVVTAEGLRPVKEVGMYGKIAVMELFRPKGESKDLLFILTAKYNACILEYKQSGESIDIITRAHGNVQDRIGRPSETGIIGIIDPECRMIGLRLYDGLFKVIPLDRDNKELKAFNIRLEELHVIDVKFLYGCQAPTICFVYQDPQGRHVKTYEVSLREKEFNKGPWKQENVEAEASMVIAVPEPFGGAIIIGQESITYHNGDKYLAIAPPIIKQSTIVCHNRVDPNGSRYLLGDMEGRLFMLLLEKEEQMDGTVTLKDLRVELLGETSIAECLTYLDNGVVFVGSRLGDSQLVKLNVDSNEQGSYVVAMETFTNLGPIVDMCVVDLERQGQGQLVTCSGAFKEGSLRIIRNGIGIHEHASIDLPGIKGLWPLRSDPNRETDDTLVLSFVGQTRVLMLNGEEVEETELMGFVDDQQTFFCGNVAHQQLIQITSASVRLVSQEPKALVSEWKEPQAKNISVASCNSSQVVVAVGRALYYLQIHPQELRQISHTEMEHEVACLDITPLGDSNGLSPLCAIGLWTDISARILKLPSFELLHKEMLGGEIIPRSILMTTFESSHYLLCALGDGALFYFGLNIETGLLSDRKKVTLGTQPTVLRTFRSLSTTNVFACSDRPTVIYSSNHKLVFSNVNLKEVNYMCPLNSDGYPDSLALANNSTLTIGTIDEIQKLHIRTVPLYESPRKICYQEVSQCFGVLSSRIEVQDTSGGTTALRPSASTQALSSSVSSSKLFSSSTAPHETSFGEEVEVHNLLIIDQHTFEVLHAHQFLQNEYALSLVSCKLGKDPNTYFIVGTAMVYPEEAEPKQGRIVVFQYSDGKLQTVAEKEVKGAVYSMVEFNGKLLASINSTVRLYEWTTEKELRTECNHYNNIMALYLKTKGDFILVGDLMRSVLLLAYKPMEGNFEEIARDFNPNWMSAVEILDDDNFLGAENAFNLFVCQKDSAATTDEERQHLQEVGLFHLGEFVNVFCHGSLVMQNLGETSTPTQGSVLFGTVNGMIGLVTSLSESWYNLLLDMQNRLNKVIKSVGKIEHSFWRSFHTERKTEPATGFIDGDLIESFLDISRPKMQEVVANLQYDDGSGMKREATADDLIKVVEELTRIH
T1 sequence (P15170 whole entry): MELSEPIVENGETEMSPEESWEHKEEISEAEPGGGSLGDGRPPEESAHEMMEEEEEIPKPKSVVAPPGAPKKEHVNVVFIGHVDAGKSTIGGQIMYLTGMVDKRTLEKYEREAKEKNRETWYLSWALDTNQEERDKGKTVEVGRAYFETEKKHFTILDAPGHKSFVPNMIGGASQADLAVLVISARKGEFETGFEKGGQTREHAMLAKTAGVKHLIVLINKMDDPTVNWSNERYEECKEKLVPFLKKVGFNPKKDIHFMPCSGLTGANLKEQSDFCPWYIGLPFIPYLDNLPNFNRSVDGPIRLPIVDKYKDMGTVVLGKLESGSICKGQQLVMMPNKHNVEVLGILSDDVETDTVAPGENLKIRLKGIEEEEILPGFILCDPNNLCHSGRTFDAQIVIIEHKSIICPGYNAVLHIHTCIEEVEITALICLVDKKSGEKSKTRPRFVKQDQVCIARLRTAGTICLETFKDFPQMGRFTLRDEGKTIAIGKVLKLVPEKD
T1 sequence (Q96SW2 whole entry): as the sequence (Q96SW2 whole entry) above
T1 sequence (Q16531 2-1140 partner limits assumed): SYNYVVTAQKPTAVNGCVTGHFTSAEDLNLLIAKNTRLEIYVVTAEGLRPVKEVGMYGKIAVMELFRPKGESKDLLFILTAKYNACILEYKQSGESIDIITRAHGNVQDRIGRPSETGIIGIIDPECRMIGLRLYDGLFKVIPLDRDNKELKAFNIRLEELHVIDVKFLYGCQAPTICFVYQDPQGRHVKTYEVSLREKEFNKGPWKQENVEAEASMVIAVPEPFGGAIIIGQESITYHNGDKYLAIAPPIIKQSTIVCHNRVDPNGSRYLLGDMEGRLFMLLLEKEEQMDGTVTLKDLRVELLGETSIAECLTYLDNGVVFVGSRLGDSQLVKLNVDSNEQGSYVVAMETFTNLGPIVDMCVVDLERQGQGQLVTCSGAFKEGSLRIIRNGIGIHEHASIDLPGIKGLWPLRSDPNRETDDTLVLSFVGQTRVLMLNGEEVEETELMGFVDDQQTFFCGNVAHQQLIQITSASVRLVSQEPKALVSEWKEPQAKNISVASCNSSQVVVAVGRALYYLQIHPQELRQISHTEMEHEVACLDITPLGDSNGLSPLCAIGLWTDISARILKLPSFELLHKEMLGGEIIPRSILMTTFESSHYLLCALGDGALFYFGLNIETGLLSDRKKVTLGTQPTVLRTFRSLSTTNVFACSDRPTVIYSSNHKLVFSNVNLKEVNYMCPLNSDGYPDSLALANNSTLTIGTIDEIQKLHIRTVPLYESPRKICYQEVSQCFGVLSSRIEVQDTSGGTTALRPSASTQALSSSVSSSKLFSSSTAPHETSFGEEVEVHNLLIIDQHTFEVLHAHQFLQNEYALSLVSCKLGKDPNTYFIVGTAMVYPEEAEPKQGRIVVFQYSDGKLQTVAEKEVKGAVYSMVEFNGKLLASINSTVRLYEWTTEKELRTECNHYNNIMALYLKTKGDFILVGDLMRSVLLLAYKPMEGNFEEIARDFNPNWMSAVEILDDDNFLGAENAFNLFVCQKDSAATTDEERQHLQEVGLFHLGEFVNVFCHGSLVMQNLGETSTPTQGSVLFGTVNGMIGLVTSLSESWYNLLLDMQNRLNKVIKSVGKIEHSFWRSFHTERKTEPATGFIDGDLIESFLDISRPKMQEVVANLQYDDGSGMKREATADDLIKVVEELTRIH

O=C1CCC(c2c(F)cc(N3CC(NC(=O)Nc4ccc(-c5ccccn5)cc4)C3)cc2F)C(=O)N1 (stereo not drawn) [Compound 26, 1-(1-(4-(2,6-dioxopiperidin-3-yl)-3,5-difluorophenyl)azetidin-3-yl)-3-(4-(pyridin-2-yl)phenyl)urea]
DC50 [1]: ≤ 30 nM | IC50 [2]: ≤ 100 nM

O=C1CCC(c2ccc(N3CC(OC(=O)Nc4cccc(OC(F)(F)F)c4)C3)cc2Cl)C(=O)N1 (stereo not drawn) [Compound 36, 1-(3-chloro-4-(2,6-dioxopiperidin-3-yl)phenyl)azetidin-3-yl (3-(trifluoromethoxy)phenyl)carbamate]
DC50 [1]: 30 to 300 nM | IC50 [2]: > 1000 nM

O=C1CCC(c2c(F)cc(N3CC(NC(=O)Nc4cc(-c5ccccc5)ccn4)C3)cc2F)C(=O)N1 (stereo not drawn) [Compound 25, 1-(1-(4-(2,6-dioxopiperidin-3-yl)-3,5-difluorophenyl)azetidin-3-yl)-3-(4-phenylpyridin-2-yl) urea]
DC50 [1]: > 300 nM | IC50 [2]: ≤ 100 nM

O=C1CCC(c2c(F)cc(N3CC(OC(=O)NCC4CCCC4)C3)cc2F)C(=O)N1 (stereo not drawn) [Compound 139, 1-(4-(2,6-dioxopiperidin-3-yl)-3,5-difluorophenyl)azetidin-3-yl (cyclopentylmethyl)carbamate]
DC50 [1]: ≤ 30 nM | IC50 [2]: ≤ 100 nM

O=C1CCC(c2c(F)cc(N3CC(OC(=O)Nc4cccc(OC(F)F)c4)C3)cc2F)C(=O)N1 (stereo not drawn) [Compound 14, 1-(4-(2,6-dioxopiperidin-3-yl)-3,5-difluorophenyl)azetidin-3-yl (3-(difluoromethoxy)phenyl)carbamate]
DC50 [1]: ≤ 30 nM | IC50 [2]: 100 to 1000 nM

COc1cc(C2CCC(=O)NC2=O)c(Cl)cc1N1CC(OC(=O)Nc2ccc(C)c(Cl)c2)C1 (stereo not drawn) [Compound 56, 1-(5-chloro-4-(2,6-dioxopiperidin-3-yl)-2-methoxyphenyl)azetidin-3-yl (3-chloro-4-methylphenyl)carbamate]
DC50 [1]: 30 to 300 nM | IC50 [2]: > 1000 nM

CC(C)CCNC(=O)OC1CN(c2cc(F)c(C3CCC(=O)NC3=O)c(F)c2)C1 (stereo not drawn) [Compound 125, 1-(4-(2,6-dioxopiperidin-3-yl)-3,5-difluorophenyl)azetidin-3-yl isopentylcarbamate]
DC50 [1]: ≤ 30 nM | IC50 [2]: 100 to 1000 nM

O=C1CCC(c2c(F)cc(N3CC(NC(=O)Nc4cccc(OC5CC5)c4)C3)cc2F)C(=O)N1 (stereo not drawn) [Compound 17, 1-(3-cyclopropoxyphenyl)-3-(1-(4-(2,6-dioxopiperidin-3-yl)-3,5-difluorophenyl)azetidin-3-yl)urea]
DC50 [1]: 30 to 300 nM | IC50 [2]: 100 to 1000 nM

O=C1CCC(c2ccc(N3CC(NC(=O)Nc4cc(OC(F)(F)F)ccn4)C3)cc2)C(=O)N1 (stereo not drawn) [Compound 74, 1-(1-(4-(2,6-dioxopiperidin-3-yl)phenyl)azetidin-3-yl)-3-(4-(trifluoromethoxy)pyridin-2-yl)urea]
DC50 [1]: > 300 nM | IC50 [2]: 100 to 1000 nM

O=C1CCC(c2c(F)cc(N3CC(OC(=O)Nc4ccc(-c5ccccn5)cc4)C3)cc2F)C(=O)N1 (stereo not drawn) [Compound 45, 1-(4-(2,6-dioxopiperidin-3-yl)-3,5-difluorophenyl)azetidin-3-yl (4-(pyridin-2-yl)phenyl)carbamate]
DC50 [1]: ≤ 30 nM | IC50 [2]: 100 to 1000 nM

O=C1CCC(c2c(F)cc(N3CC(NC(=O)NC45CC(c6ccccc6)(C4)C5)C3)cc2F)C(=O)N1 (stereo not drawn) [Compound 73, 1-(1-(4-(2,6-dioxopiperidin-3-yl)-3,5-difluorophenyl)azetidin-3-yl)-3-(3-phenylbicyclo[1.1.1]pentan-1-yl)urea]
DC50 [1]: ≤ 30 nM | IC50 [2]: 100 to 1000 nM

O=C1CCC(c2c(F)cc(N3CC(NC(=O)Nc4cc(Cl)cc(OC(F)F)c4)C3)cc2F)C(=O)N1 (stereo not drawn) [Compound 28, 1-(3-chloro-5-(difluoromethoxy)phenyl)-3-(1-(4-(2,6-dioxopiperidin-3-yl)-3,5-difluorophenyl)azetidin-3-yl)urea]
DC50 [1]: 30 to 300 nM | IC50 [2]: 100 to 1000 nM

Cc1cc(C)cc(NC(=O)NC2CN(c3ccc(C4CCC(=O)NC4=O)c(Cl)c3)C2)c1 (stereo not drawn) [Compound 35, 1-(1-(3-chloro-4-(2,6-dioxopiperidin-3-yl)phenyl)azetidin-3-yl)-3-(3,5-dimethylphenyl)urea]
DC50 [1]: > 300 nM | IC50 [2]: 100 to 1000 nM

COc1ccc(C(F)(F)C23CC(NC(=O)OC4CN(c5cc(F)c(C6CCC(=O)NC6=O)c(F)c5)C4)(C2)C3)cc1 (stereo not drawn) [Compound 69, 1-(4-(2,6-dioxopiperidin-3-yl)-3,5-difluorophenyl)azetidin-3-yl (3-(difluoro(4-methoxyphenyl)methyl)bicyclo[1.1.1]pentan-1-yl)carbamate]
DC50 [1]: ≤ 30 nM | IC50 [2]: 100 to 1000 nM

O=C1CCC(c2ccc(N3CC(NC(=O)Nc4cccc(OC(F)(F)F)c4)C3)cc2Cl)C(=O)N1 (stereo not drawn) [Compound 41, 1-(1-(3-chloro-4-(2,6-dioxopiperidin-3-yl)phenyl)azetidin-3-yl)-3-(3-(trifluoromethoxy)phenyl)urea]
DC50 [1]: > 300 nM | IC50 [2]: 100 to 1000 nM

O=C1CCC(c2c(F)cc(N3CC(OC(=O)NCC4CCCCC4)C3)cc2F)C(=O)N1 (stereo not drawn) [Compound 127, 1-(4-(2,6-dioxopiperidin-3-yl)-3,5-difluorophenyl)azetidin-3-yl(cyclohexylmethyl) carbamate]
DC50 [1]: ≤ 30 nM | IC50 [2]: 100 to 1000 nM

C[C@@H]1CCCN1c1ccc(NC(=O)NC2CN(c3cc(F)c(C4CCC(=O)NC4=O)c(F)c3)C2)cn1 (stereo partly drawn) [Compound 30, 1-(1-(4-(2,6-dioxopiperidin-3-yl)-3,5-difluorophenyl)azetidin-3-yl)-3-(6-((R)-2-methylpyrrolidin-1-yl)pyridin-3-yl)urea]
DC50 [1]: ≤ 30 nM | IC50 [2]: ≤ 100 nM

Cc1c(Cl)cc(NC(=O)NC2CN(c3cc(F)c(C4CCC(=O)NC4=O)c(F)c3)C2)cc1OCCN1CCOCC1 (stereo not drawn) [Compound 13, 1-(3-chloro-4-methyl-5-(2-morpholinoethoxy)phenyl)-3-(1-(4-(2,6-dioxopiperidin-3-yl)-3,5-difluorophenyl)azetidin-3-yl)urea]
DC50 [1]: ≤ 30 nM | IC50 [2]: ≤ 100 nM
